Test results: ChEMBL document CHEMBL1944629, “Investigation of trypanothione reductase inhibitory activity by 1,3,4-thiadiazolium-2-aminide derivatives and molecular docking studies” (Bioorg Med Chem, 2012)
The source made the active and inactive calls. No cut-off for these calls is given here.

Tests used:
[1] = target: Trypanothione reductase (Leishmania amazonensis) (UniProt A5JV95); test: Inhibition of trypanothione reductase in Leishmania amazonensis MHOM/BR/LTB0016 extracts assessed as NADPH consumption using trypanothione disulfide as substrate at 1 uM after 5 sec by spectrophotometer
Chain of Trypanothione reductase (Leishmania amazonensis) (A5JV95 as listed by the source): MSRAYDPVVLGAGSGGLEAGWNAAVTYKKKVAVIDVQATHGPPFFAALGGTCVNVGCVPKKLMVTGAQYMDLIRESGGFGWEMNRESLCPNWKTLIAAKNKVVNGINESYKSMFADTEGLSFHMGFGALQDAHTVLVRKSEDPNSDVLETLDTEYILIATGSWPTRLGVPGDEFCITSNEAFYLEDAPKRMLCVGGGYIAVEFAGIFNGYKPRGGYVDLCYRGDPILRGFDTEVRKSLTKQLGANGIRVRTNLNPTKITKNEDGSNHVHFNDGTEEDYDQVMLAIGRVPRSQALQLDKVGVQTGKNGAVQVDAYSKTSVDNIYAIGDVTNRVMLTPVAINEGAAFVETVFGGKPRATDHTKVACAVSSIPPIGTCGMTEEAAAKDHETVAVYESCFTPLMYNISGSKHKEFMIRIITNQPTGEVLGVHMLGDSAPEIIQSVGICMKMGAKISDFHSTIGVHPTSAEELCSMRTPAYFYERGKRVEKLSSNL

[2] = target: Trypanothione reductase (Leishmania infantum) (UniProt A4HSF7); test: Inhibition of recombinant Leishmania infantum MHOM/MA67ITMAP263 trypanothione reductase assessed as inhibition of NADPH consumption using trypanothione disulfide as substrate at 1 uM after 60 secs by spectrophotometer
Chain of Trypanothione reductase (Leishmania infantum) (A4HSF7 as listed by the source): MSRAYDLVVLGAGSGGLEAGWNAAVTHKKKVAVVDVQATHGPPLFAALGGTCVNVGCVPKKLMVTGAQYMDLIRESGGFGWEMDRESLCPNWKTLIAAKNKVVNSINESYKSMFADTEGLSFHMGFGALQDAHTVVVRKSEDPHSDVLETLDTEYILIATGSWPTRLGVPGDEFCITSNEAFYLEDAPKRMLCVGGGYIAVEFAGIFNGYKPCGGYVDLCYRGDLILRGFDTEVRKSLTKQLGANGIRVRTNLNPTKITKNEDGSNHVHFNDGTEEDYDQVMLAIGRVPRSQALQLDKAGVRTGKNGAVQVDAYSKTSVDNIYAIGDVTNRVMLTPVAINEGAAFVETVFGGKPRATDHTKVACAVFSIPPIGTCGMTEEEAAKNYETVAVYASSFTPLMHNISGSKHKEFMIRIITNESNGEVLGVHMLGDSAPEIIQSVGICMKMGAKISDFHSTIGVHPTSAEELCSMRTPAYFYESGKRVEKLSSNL

[3] = target: Trypanothione reductase (Trypanosoma cruzi) (UniProt P28593); test: Inhibition of recombinant Trypanosoma cruzi Y trypanothione reductase assessed as inhibition of NADPH consumption using trypanothione disulfide as substrate at 1 uM after 60 secs by spectrophotometer
Chain of Trypanothione reductase (Trypanosoma cruzi) (P28593 whole entry, looked up): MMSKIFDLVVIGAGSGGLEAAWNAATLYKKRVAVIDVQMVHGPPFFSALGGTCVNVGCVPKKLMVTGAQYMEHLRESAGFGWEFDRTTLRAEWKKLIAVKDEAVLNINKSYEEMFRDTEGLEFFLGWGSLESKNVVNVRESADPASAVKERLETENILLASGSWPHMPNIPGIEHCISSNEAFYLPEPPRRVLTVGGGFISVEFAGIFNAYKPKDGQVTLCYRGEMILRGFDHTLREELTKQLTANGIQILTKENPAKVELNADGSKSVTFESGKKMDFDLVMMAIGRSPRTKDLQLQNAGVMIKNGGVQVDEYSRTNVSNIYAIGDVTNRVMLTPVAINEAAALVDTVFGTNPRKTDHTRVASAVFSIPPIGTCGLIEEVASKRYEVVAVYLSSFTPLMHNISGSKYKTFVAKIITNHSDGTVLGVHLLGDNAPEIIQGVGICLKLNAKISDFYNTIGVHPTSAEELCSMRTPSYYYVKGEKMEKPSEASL

[4] = target: Trypanothione reductase (Leishmania infantum) (UniProt A4HSF7); test: Inhibition of trypanothione reductase in promastigotes of Leishmania infantum MHOM/MA67ITMAP263 extracts assessed as NADPH consumption using trypanothione disulfide as substrate at 1 uM after 5 sec by spectrophotometer
Leishmania braziliensis = test: Inhibition of trypanothione reductase in promastigotes of Leishmania braziliensis MCAN/BR/98/R619 extracts assessed as NADPH consumption using trypanothione disulfide as substrate at 1 uM after 5 sec by spectrophotometer
[5] = target: Trypanothione reductase (Trypanosoma cruzi) (UniProt P28593); test: Inhibition of trypanothione reductase epimastigotes of Trypanosoma cruzi Y extracts assessed as NADPH consumption using trypanothione disulfide as substrate at 1 uM after 5 sec by spectrophotometer

COc1cccc(/C=C/c2sc(Nc3ccccc3)n[n+]2-c2ccccc2)c1
inhibition [1]: inactive

COc1ccc(/C=C/c2sc(Nc3ccccc3)n[n+]2-c2ccccc2)cc1
inhibition [1]: inactive

C(=C\c1sc(Nc2ccccc2)n[n+]1-c1ccccc1)/c1ccccc1
inhibition [1]: inactive | inhibition [2]: inactive | inhibition [3]: inactive

O=[N+]([O-])c1ccc(/C=C/c2sc(Nc3ccccc3)n[n+]2-c2ccccc2)cc1
inhibition [1]: 76% | inhibition [4]: 70% | inhibition (Leishmania braziliensis): 69.5% | inhibition [5]: 83% | inhibition [2]: 76% | inhibition [3]: 69%
